Consider 19 compounds from US20260000676A1, “CHROMAN DERIVATIVES AS ESTROGEN RECEPTOR DEGRADERS” (THE REGENTS OF THE UNIVERSITY OF MICHIGAN, priority 2022, published 2026).

One assay has as its target ER (Homo sapiens (Human), UniProt P03372). The assay can be described thus: In-cell western (ICW) ER degradation assay in MCF-7 cells. In kind it is cell-based. The following applies: MCF7, 16 hrs; for DC50: ER degradation; for Dmax: MCF7, maximal ER degradation; for MCF7 Dmax %: maximal ER degradation. The protocol: ERa degradative activity of compounds can be assessed in MCF-7 and T47D Cells. MCF-7 and T47D cell are seeded and are subsequently treated with the compounds at certain concentrations (e.g., 0.02 to 300 nM). DMSO can be used as vehicle control. Cells are fixed and are blocked with Intercept (PBS) Blocking Buffer (e.g., Li-COR, Odyssey Blocking Buffer), and are stained with ER (e.g., 1:500, Cell signaling) primary antibody for overnight at cold room. Secondary Antibody (e.g., IRDye 800CW Goat anti-Rabbit IgG) and CellTag 700 Stain are added in Intercept (PBS) Blocking Buffer. Finally, cell plate is placed in incubator to dry. Image and signal are captured on Odyssey® DLx Imaging System.
Day 3: After 16 hrs of compounds treatment, cells were fixed by 4% PFA and permeabilized with elution buffer (0.1% Triton X-100 in 1% PBS Solution). Subsequently, cells were blocked with Intercept (PBS) Blocking Buffer (Li-COR, Odyssey Blocking Buffer), and were stained with ER (1:500, Cell signaling) primary antibody for overnight at cold room.
Day 4: Remove the buffer, add IRDye 800CW Goat anti-Rabbit IgG Secondary Antibody (1:2000) and CellTag 700 Stain (1:500) in Intercept (PBS) Blocking Buffer. Finally, cell plate is placed in incubator to dry. Image and signal were captured on Odyssey® DLx Imaging System.

The target in a further assay is CRBN/DDB1 (Homo sapiens (Human), UniProt Q96SW2). The assay can be described thus: HTRF binding assay to CRBN/DDB1. As to conditions: read-out: CRBN HTRF IC50. The procedure:
The binding potency was determined using HTRF assay technology (Perkin Elmer). Compounds were serially diluted in DMSO and 0.2 μL volume was transferred to white 384-well plate.
Background: In TR-FRET formats the signal depends on donor and acceptor labels being close together.

One may read the DC50 as the concentration giving 50% degradation. A word on the Dmax: it is the largest share of the target that was removed. Usually IC50 stands for the concentration that gives 50% inhibition.

Chain of CRBN/DDB1 (Q96SW2 whole entry): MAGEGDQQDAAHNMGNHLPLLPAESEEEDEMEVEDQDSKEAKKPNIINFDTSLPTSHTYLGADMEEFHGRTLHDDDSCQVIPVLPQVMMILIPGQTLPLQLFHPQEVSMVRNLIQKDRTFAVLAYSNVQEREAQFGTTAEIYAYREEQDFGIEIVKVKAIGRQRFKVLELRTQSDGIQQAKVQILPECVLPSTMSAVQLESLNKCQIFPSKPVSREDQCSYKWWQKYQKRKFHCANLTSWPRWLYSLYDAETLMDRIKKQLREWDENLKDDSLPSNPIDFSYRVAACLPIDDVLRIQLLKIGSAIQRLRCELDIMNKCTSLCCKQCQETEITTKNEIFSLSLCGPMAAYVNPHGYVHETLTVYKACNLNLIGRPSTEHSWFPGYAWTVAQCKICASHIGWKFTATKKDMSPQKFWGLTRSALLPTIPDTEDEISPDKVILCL
Chain of CRBN/DDB1 (Q16531 whole entry partner): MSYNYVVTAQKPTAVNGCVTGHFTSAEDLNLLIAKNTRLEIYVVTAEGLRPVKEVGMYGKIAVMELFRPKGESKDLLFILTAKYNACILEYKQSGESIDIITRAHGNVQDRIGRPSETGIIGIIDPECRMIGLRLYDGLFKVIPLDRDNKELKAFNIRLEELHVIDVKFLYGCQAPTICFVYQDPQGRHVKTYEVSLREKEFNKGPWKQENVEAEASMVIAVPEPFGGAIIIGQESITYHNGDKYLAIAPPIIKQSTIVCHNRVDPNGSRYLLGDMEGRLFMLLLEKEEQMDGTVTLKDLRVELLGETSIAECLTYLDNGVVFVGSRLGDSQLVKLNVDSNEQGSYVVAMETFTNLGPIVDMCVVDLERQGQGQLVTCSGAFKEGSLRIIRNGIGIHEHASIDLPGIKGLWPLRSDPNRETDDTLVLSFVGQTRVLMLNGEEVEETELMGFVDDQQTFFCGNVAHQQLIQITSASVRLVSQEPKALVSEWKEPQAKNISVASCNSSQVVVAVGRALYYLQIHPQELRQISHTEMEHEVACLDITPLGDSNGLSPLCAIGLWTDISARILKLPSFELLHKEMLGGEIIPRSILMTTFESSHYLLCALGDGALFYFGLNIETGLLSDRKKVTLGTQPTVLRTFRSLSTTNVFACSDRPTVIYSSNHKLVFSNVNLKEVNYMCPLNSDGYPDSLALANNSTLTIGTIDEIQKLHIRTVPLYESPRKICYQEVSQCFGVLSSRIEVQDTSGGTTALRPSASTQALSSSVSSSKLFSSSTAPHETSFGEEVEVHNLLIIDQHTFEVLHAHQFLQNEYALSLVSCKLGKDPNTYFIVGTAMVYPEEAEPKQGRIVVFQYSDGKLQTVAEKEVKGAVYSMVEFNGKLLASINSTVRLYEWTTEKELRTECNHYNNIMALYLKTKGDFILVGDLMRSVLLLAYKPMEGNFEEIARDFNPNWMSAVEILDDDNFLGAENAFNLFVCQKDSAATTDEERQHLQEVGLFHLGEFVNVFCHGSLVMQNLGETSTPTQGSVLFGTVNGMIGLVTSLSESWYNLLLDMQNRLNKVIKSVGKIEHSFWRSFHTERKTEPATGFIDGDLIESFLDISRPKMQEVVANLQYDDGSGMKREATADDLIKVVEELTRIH
Chain of ER (P03372 whole entry): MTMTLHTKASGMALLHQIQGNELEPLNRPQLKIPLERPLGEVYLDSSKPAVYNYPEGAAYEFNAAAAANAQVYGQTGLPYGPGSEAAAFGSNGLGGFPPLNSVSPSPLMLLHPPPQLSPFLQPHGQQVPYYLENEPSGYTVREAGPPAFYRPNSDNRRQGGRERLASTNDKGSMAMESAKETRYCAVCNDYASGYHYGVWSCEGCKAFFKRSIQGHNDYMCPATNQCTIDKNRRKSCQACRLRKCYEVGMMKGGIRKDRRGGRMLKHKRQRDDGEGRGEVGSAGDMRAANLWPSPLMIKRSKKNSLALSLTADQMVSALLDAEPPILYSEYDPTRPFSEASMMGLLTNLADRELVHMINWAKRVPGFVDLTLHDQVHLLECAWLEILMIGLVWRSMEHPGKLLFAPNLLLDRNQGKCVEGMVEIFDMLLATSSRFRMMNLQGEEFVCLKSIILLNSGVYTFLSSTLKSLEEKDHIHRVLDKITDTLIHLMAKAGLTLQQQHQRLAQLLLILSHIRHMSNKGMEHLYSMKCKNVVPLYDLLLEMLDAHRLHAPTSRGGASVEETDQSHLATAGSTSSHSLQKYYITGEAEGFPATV

In the case of `O=C1CCC(N2Cc3cc4c(cc3C2=O)CN(C(=O)CN2CCC3(CC2)CCN(c2ccc([C@@H]5c6ccc(O)cc6OC[C@@H]5c5ccccc5)cc2)CC3)C4)C(=O)N1` (single isomer, unassigned) [Compound A42], on ER, the DC50 is > 100 nM and the Dmax was < 25%. For the same compound, the IC50 at CRBN/DDB1 lay in the range of 50 to 500 nM.
As for `O=C1CCC(N2Cc3cc4c(cc3C2=O)CN(C(=O)CN2CCC3(CC2)CN(c2ccc([C@H]5c6ccc(O)cc6OC[C@H]5c5ccccc5)cc2)C3)C4)C(=O)N1` (stereo partly drawn) [Compound A48, 3-(6-(2-(2-(4-((3R,4S)-7-hydroxy-3-phenylchroman-4-yl)phenyl)-2,7-diazaspiro[3.5]nonan-7-yl)acetyl)-1-oxo-3,5,6,7-tetrahydropyrrolo[3,4-f]isoindol-2(1H)-yl)piperidine-2,6-dione], at ER, the DC50 was > 100 nM and the Dmax is < 25%. For the same compound, the IC50 on CRBN/DDB1 is 50 to 500 nM.
At ER, `O=C1CCC(N2Cc3cc4c(cc3C2=O)OC[C@@H]2CN(CC3CC5(CCN(c6ccc([C@H]7c8ccc(O)cc8OC[C@H]7c7ccccc7)cc6)CC5)C3)CCN42)C(=O)N1` (single isomer, unassigned) [Compound A27, 3-((S)-3-((7-(4-((3R,4S)-7-hydroxy-3-phenylchroman-4-yl)phenyl)-7-azaspiro[3.5]nonan-2-yl)methyl)-8-oxo-1,2,3,4,4a,5,8,10-octahydro-9H-pyrazino[1′,2′:4,5][1,4]oxazino[2,3-f]isoindol-9-yl)piperidine-2,6-dione] returned a DC50 of 1 to 10 nM. On CRBN/DDB1, the IC50 fell in the range of 500 to 5000 nM.
Consider `O=C1CCC(N2Cc3cc4c(cc3C2=O)CN(C(=O)CN2CC3(CCN(c5ccc([C@H]6c7ccc(O)cc7OC[C@H]6c6ccccc6)cc5)CC3)C2)C4)C(=O)N1` (single isomer, unassigned) [Compound A45], for which, at ER, the DC50 is > 100 nM and the “MCF7 Dmax %” value was “D (“D”; <25%)”. The IC50 on CRBN/DDB1 is 50 to 500 nM.
As to `O=C1CCC(N2Cc3c(ccc4c3OC[C@H]3CN(CC5CCN(c6ccc([C@@H]7c8ccc(O)cc8OC[C@@H]7c7ccccc7)cc6F)CC5)CCN43)C2=O)C(=O)N1` (single isomer, unassigned) [Compound A9], the DC50 on ER was in the range of 1 to 10 nM. The IC50 at CRBN/DDB1 was 50 to 500 nM.
On to `COc1nc(C(=O)NC2CCC(=O)NC2=O)ccc1N1CCN(CC2CCN(c3ccc([C@H]4c5ccc(O)cc5OC[C@H]4c4ccccc4)cc3F)CC2)CC1` (single isomer, unassigned) [Compound A102], for which, at ER, the DC50 was < 1 nM and the Dmax was 50 to 75%. The IC50 at CRBN/DDB1 is 500 to 5000 nM.
On ER, `O=C1CCC(N2Cc3c(ccc4c3OC[C@H]3CN(CC5CCN(c6ncc([C@@H]7c8ccc(O)cc8OC[C@@H]7c7ccccc7)cn6)CC5)CCN43)C2=O)C(=O)N1` (single isomer, unassigned) [Compound A36] came in with a half-maximal degradation concentration (DC50) of 10 to 100 nM and a maximal degradation (Dmax) of 25 to 50%. At CRBN/DDB1, the IC50 lay within 50 to 500 nM.
Taken in the same sequence, the figures for `O=C1CCC(N2C(=O)c3cc4c(cc3C2=O)CN(CC(=O)N2CCC3(CC2)CN(c2ccc([C@H]5c6ccc(O)cc6OC[C@H]5c5ccccc5)cc2)C3)C4)C(=O)N1` (single isomer, unassigned) [Compound A38] were 10 to 100 nM, 25 to 50% and 50 to 500 nM.
Consider `O=C1CCC(N2Cc3c(ccc4c3OC[C@@H]3CN(CC5CCN(c6ccc([C@@H]7c8ccc(O)cc8OC[C@@H]7c7ccccc7)cc6F)CC5)CCN43)C2=O)C(=O)N1` (single isomer, unassigned) [Compound A6], for which, on ER, the DC50 fell in the range of 1 to 10 nM and the Dmax was 50 to 75%. The IC50 at CRBN/DDB1 lay within 50 to 500 nM.
Taken in the same sequence, the figures for `O=C1CCC(N2C(=O)c3cc4c(cc3C2=O)CN(C(=O)CN2CCC3(CC2)CN(c2ccc([C@@H]5c6ccc(O)cc6OC[C@@H]5c5ccccc5)cc2)C3)C4)C(=O)N1` (stereo partly drawn) [Compound A47, 2-(2,6-dioxopiperidin-3-yl)-6-(2-(2-(4-((3S,4R)-7-hydroxy-3-phenylchroman-4-yl)phenyl)-2,7-diazaspiro[3.5]nonan-7-yl)acetyl)-6,7-dihydropyrrolo[3,4-f]isoindole-1,3(2H,5H)-dione] were 10 to 100 nM, 25 to 50% and 500 to 5000 nM.
Regarding “2-(2,6-dioxopiperidin-3-yl)-6-(2-(9-(4-((3R,4S)-7-hydroxy-3-phenylchroman-4-yl)phenyl)-3,9-diazaspiro[5.5]undecan-3-yl)acetyl)-6,7-dihydropyrrolo[3,4-flisoindole-1,3(2H,5H)-dione [Compound A43]”, at ER, the DC50 was > 100 nM and the “MCF7 Dmax %” value is on record as “D (“D”; <25%)”. Moreover, on CRBN/DDB1, the concentration for half-maximal inhibition (IC50) was > 5000 nM.
`O=C1CCC(N2Cc3c(ccc4c3OC[C@H]3CN(CC5CCN(c6ccc([C@@H]7c8ccc(O)cc8OC[C@@H]7c7ccccc7)cc6)CC5)CCN43)C2=O)C(=O)N1` (single isomer, unassigned) [Compound A8] showed a DC50 on ER of 1 to 10 nM. In addition, the IC50 on CRBN/DDB1 fell in the range of 50 to 500 nM.
On ER, `Cc1nn(C2CCC(=O)NC2=O)c2ccc(N3CCN(CC4CCN(c5ccc([C@@H]6c7ccc(O)cc7OC[C@@H]6c6ccccc6)cc5F)CC4)CC3)cc12` (single isomer, unassigned) [Compound A14] registered a DC50 of 1 to 10 nM and a Dmax of 25 to 50%. The IC50 at CRBN/DDB1 was in the range of 500 to 5000 nM.
With `O=C1CCC(N2Cc3cc4c(cc3C2=O)OC[C@@H]2CN(CC3CC5(CCN(c6ccc([C@@H]7c8ccc(O)cc8OC[C@@H]7c7ccccc7)cc6)CC5)C3)CCN42)C(=O)N1` (stereo partly drawn) [Compound A28, 3-((S)-3-((7-(4-((3S,4R)-7-hydroxy-3-phenylchroman-4-yl)phenyl)-7-azaspiro[3.5]nonan-2-yl)methyl)-8-oxo-1,2,3,4,4a,5,8,10-octahydro-9H-pyrazino[1′,2′:4,5][1,4]oxazino[2,3-f]isoindol-9-yl)piperidine-2,6-dione], the IC50 at CRBN/DDB1 is > 5000 nM.
With `O=C1CCC(N2Cc3c(ccc4c3OC[C@@H]3CN(CC5CCN(c6ccc([C@@H]7c8ccc(O)cc8OC[C@@H]7c7ccccc7)cc6)CC5)CCN43)C2=O)C(=O)N1` (single isomer, unassigned) [Compound A7], on ER, the DC50 was in the range of 1 to 10 nM and the Dmax fell in the range of 50 to 75%. Besides, the concentration for half-maximal inhibition (IC50) at CRBN/DDB1 was 50 to 500 nM.
As for `COc1ccc([C@@H]2COc3cc(O)ccc3[C@@H]2c2ccc(N3CCC(CN4CCN5c6ccc7c(c6OC[C@@H]5C4)CN(C4CCC(=O)NC4=O)C7=O)CC3)cc2)cc1` (single isomer, unassigned) [Compound A12], on CRBN/DDB1, the IC50 was in the range of 50 to 500 nM.
`O=C1CC[C@H](N2Cc3c(ccc4c3OC[C@H]3CN(CC5CC6(CCN(c7ccc([C@@H]8c9ccc(O)cc9OC[C@@H]8c8ccccc8)cc7)CC6)C5)CCN43)C2=O)C(=O)N1` (single isomer, unassigned) [Compound A37]: on ER, the 50% degradation concentration (DC50) lay in the range of 1 to 10 nM and the “MCF7 Dmax %” value is recorded as “C (“C”: 25%-50%)”. The IC50 on CRBN/DDB1 was < 50 nM.
Regarding `COc1cccc([C@@H]2COc3cc(O)ccc3[C@@H]2c2ccc(N3CCC(CN4CCN5c6ccc7c(c6OC[C@@H]5C4)CN(C4CCC(=O)NC4=O)C7=O)CC3)cc2)c1` (single isomer, unassigned) [Compound A24], at CRBN/DDB1, the IC50 was < 50 nM.
As for `COc1ccc([C@H]2COc3cc(O)ccc3[C@H]2c2ccc(N3CCC(CN4CCN5c6ccc7c(c6OC[C@@H]5C4)CN(C4CCC(=O)NC4=O)C7=O)CC3)cc2)cc1` (single isomer, unassigned) [Compound A13], the IC50 on CRBN/DDB1 fell in the range of 50 to 500 nM.
